Measurements as given in patent US11317631B2, “Natamycin compositions and uses thereof” (Arec Crop Protection B.V., priority 2016, dated 2022).
Read-outs that look alike come from different tables or passages of the source.

Tests used:
[1] = BET surface area analysis; type: physicochemical; set-up: BET analysis: dose or concentration left out as unconfirmed; conditions: for BET analysis: milled to a particle size of 2 μm; for BET: batches of Table 20
Experimental: Surface area may be measured by any suitable methods or techniques known in the art. For example, with respect to the variations described above, the surface area is measured by BET (also known in the art as Brunauer, Emmett and Tellers analysis theory). Using BET analysis, the surface area of the natamycin composition may be determined by physical adsorption of nitrogen (N2) gas on the surface of the natamycin composition, which is a solid. The value of the BET analysis is expressed as m^2 per gram of solid material.
Brunauer, Emmett, and Tellers (BET) analysis theory was used to determine the surface area (expressed as m^2/g) for Natamycin Composition A and Control Natamycin. Each sample was milled to a particle size of […] prior to BET analysis.

[2] = Saturation studies: dissolution in water with 5% polysorbate 80, HPLC peak areas; type: physicochemical; conditions: water + 5% polysorbate 80, 22° C.
Experimental: Saturation studies were performed on Natamycin Composition A and Control Natamycin, both at 25% (w/w %) suspension in water. […] To prepare the samples for solubility analysis, a plastic pipet was used to add 3 drops (0.25 mL) of thoroughly shaken formulation to 10 mL of the dissolution medium. […] Then, 0.05 mL of the mobile phase was added to 0.25 mL of the filtrated natamycin aliquot. The aliquots were then injected individually onto a high performance liquid chromatography (HPLC) column and the resulting peak areas were calculated. […] The column temperature was set to 25° C. and the natamycin was detected at a wavelength of 304 nm.

[3] = Liquid phase concentration of natamycin in the suspensions (centrifugation, HPLC); type: physicochemical; conditions: supernatant of suspension in water
Experimental: The supernatants were then collected and diluted 10-fold with an acetonitrile:water (3:7) solution. The concentration of natamycin in the liquid layer was then determined by injecting the samples individually onto an HPLC and comparing the UV-Vis absorption to that of a standard natamycin stock solution.

Fusarium graminearum = type: in vivo; conditions: for Average Vigor: 0-10 scale
Saccharomyces cerevisiae [4] = experiment: Bioavailability: filter disc inhibition zone on yeast agar plates (Examples 15 and 16); type: cell-based; conditions: 10 μl of 3 mM natamycin
Experimental: Saccharomyces cerevisiae (at least 10^5 cfu/ml) was distributed on Petri dishes with a diameter of 145 mm containing 30 ml Potato Dextrose Agar (PDA; Carl Roth; pH of about 6) using sterilized swabs. […] Following the application of a filter, Petri dishes were incubated for 16 h h in a refrigerator at 4° C. to allow diffusion of natamycin into the agar. After 16 h the filter discs were removed from the agar and the Petri dishes were incubated upside down in a stove at 30° C. […] After 24 h incubation in the stove the size of the inhibition zone was determined using a digital caliper gauge. The data are presented as square mm and are an average of six replicas. The effect of 3 mM natamycin on yeast growth in Petri dishes was determined as described herein above. Numbers represent surface of inhibition zones expressed in square mm. Same methods as described above in Example 15. The effect of 3 mM natamycin on yeast growth in Petri dishes was determined as described herein above, unless otherwise indicated.

Botrytis cinerea = experiment: Botrytis on wounded apples (Examples 18 to 20); type: in vivo
Experimental: Tested fruit: apples […] from organic origin/SKAL certified. SKAL is a semi-governmental Dutch organization that controls organic production in the Netherlands. Wounds of the apples were checked at day 3. Natamycin with different proteins and starch contents were tested at a natamycin concentration of 100 ppm. Used pathogen: Botrytis cinerea spore-suspension containing 2*10^6 spores/ml. Application: The fruit peel of the apple was damaged with a cork borer, ø 4 mm and depth 0.5 cm into the fruit, with 2 wounds per apple. 40 microliter of a freshly prepared spore suspension of B. cinerea was applied by pipette onto each wound. Subsequently, the spore-suspension was allowed to air-dry for 4 hours. Then, 50 microliter of a treatment as presented in the list above was applied by pipette to each wound. All fruits were kept at room temperature (20° C.). Wounds of the apples were checked after 3 days of incubation. The efficacy was calculated by measuring the surface area (square mm) of the rot on the apples compared to the untreated control (see Tables 31 and 32). Replicates: All treatments for the apple experiment were performed on six individual apples with two wounds each resulting in 12 wounds per treatment. This experiment was performed as described in Example 18. This experiment was performed as described in Example 19. Natamycin A and Natamycin E were used at different concentrations and data were recorded at different time points, as is indicated in Table 35.

Saccharomyces cerevisiae [5] = experiment: Bioavailability: filter disc inhibition zone, disc moved to a new plate after 24 h (Example 17); type: cell-based; conditions: 50 μl of 3 mM natamycin
Experimental: Saccharomyces cerevisiae (at least 10^5 cfu/ml) was distributed on Petri dishes with a diameter of 90 mm containing 10 ml PDA agar (Carl Roth, pH about 6) using sterilized swabs. Filter paper discs (Whatman) with a diameter of 6 mm were loaded with 50 μl of a solution containing a concentration of 3 mM natamycin. The size of the inhibition zone is a result of the natamycin released from the sample disc. After 24 h of incubation in the stove the size of the inhibition zone was measured using a digital caliper gauge. After measuring, the filter discs were removed and replaced on a new Petri dish similar to the previous one (90 mm containing 10 ml PDA agar and Saccharomyces cerevisiae (at least 10^5 cfu/ml) distributed by swabs). 24 hours after the replacement of the filters, the inhibition zone was measured again. The data are presented as square mm and are an average of four replicas.

[6] = Average particle size of natamycin batches (Example 14); type: physicochemical; conditions: batches of Table 20
Source text: Methods for determining the average size of particles in a composition are known to the skilled person. For example, Hukkanen and Braatz, 2003. Sensors and Actuators B 96: 451-459, discuss varies methods that can be used for determining the average particle size in a composition, including forward light scattering and ultrasonic extinction. A preferred method is sieve analysis or laser diffraction analysis, for example using a Analysette 22-MicroTec plus laser-particle-sizer (Fritsch, Idar-Oberstein, Germany).
Several batches of crude natamcyin, prepared as described herein above, and commercial batches of purified natamycin (95%) were obtained and analysed.

C[C@@H]1C/C=C/C=C/C=C/C=C/[C@H](O[C@@H]2O[C@H](C)[C@@H](O)[C@H](N)[C@@H]2O)C[C@@H]2O[C@](O)(C[C@@H](O)C[C@H]3O[C@@H]3/C=C/C(=O)O1)C[C@H](O)[C@H]2C(=O)O [Control Natamycin, comprising natamycin F]
BET analysis [1]: 9.4 m^2/g

C[C@@H]1C/C=C/C=C/C=C/C=C/[C@H](O[C@@H]2O[C@H](C)[C@@H](O)[C@H](N)[C@@H]2O)C[C@@H]2O[C@](O)(C[C@@H](O)C[C@H]3O[C@@H]3/C=C/C(=O)O1)C[C@H](O)[C@H]2C(=O)O [Control Natamycin, comprising natamycin batch # 140206]
BET analysis [1]: 7.7 m^2/g

C[C@@H]1C/C=C/C=C/C=C/C=C/[C@H](O[C@@H]2O[C@H](C)[C@@H](O)[C@H](N)[C@@H]2O)C[C@@H]2O[C@](O)(C[C@@H](O)C[C@H]3O[C@@H]3/C=C/C(=O)O1)C[C@H](O)[C@H]2C(=O)O [Control Natamycin, natamycin]
HPLC peak area ([2]; 20 s): 3966 mAUs
HPLC peak area ([2]; 60 s): 4077 mAUs
HPLC peak area ([2]; 300 s): 4005 mAUs
average BET surface area ([1]; average of the trials of Table 4): 8.5 m^2/g
Natamycin in the liquid phase [3]: 68 µg/mL
Number of plants at last count (Fusarium graminearum; 2.5 g AI/100 kg): 47
Plant loss (Fusarium graminearum; 2.5 g AI/100 kg): 52%
Average Vigor (Fusarium graminearum; 2.5 g AI/100 kg): 7.9
Number of plants at last count (Fusarium graminearum; 5 g AI/100 kg): 45
Plant loss (Fusarium graminearum; 5 g AI/100 kg): 52%
Average Vigor (Fusarium graminearum; 5 g AI/100 kg): 7.8
Number of plants at last count (Fusarium graminearum; 10 g AI/100 kg): 36
Plant loss (Fusarium graminearum; 10 g AI/100 kg): 62%
Average Vigor (Fusarium graminearum; 10 g AI/100 kg): 7.5
Number of plants at last count (Fusarium graminearum; 20 g AI/100 kg): 45
Plant loss (Fusarium graminearum; 20 g AI/100 kg): 52%
Average Vigor (Fusarium graminearum; 20 g AI/100 kg): 7.7

C[C@@H]1C/C=C/C=C/C=C/C=C/[C@H](O[C@@H]2O[C@H](C)[C@@H](O)[C@H](N)[C@@H]2O)C[C@@H]2O[C@](O)(C[C@@H](O)C[C@H]3O[C@@H]3/C=C/C(=O)O1)C[C@H](O)[C@H]2C(=O)O [Natamycin 140206, natamycin]
BET [1]: 7.73 m^2/g
Inhibition zone (Saccharomyces cerevisiae [4]; Table 22): 167 mm^2

C[C@@H]1C/C=C/C=C/C=C/C=C/[C@H](O[C@@H]2O[C@H](C)[C@@H](O)[C@H](N)[C@@H]2O)C[C@@H]2O[C@](O)(C[C@@H](O)C[C@H]3O[C@@H]3/C=C/C(=O)O1)C[C@H](O)[C@H]2C(=O)O [Natamycin E, natamycin]
Efficacy (Botrytis cinerea; Table 32, 100 ppm natamycin, day 3): 54%
Efficacy (Botrytis cinerea; Table 34, day 3): 75%
Efficacy (Botrytis cinerea; Table 34, day 5): 58%
Efficacy (Botrytis cinerea; Table 34, day 7): 53%
Efficacy (Botrytis cinerea; Table 34, day 9): 42%
Efficacy (Botrytis cinerea; Table 35, 100 ppm, day 3): 84%
Efficacy (Botrytis cinerea; Table 35, 100 ppm, day 5): 41%
Efficacy (Botrytis cinerea; Table 35, 100 ppm, day 7): 12%
Efficacy (Botrytis cinerea; Table 35, 2000 ppm, day 3): 100%
Efficacy (Botrytis cinerea; Table 35, 2000 ppm, day 5): 62%
Efficacy (Botrytis cinerea; Table 35, 2000 ppm, day 7): 50%
Inhibition zone (Saccharomyces cerevisiae [5]; 24 h): 480 mm^2
Inhibition zone (Saccharomyces cerevisiae [5]; 48 h (disc replaced on a new plate after 24 h)): 298 mm^2
D0.5 (average particle size of the particles) [6]: 14.4 μm
Inhibition zone (Saccharomyces cerevisiae [4]; Table 24): 242 mm2
Inhibition zone (Saccharomyces cerevisiae [4]; Table 26): 188 mm2
Inhibition zone (Saccharomyces cerevisiae [4]; Table 27): 179 mm2
Inhibition zone (Saccharomyces cerevisiae [4]; Table 28): 110 mm2

C[C@@H]1C/C=C/C=C/C=C/C=C/[C@H](O[C@@H]2O[C@H](C)[C@@H](O)[C@H](N)[C@@H]2O)C[C@@H]2O[C@](O)(C[C@@H](O)C[C@H]3O[C@@H]3/C=C/C(=O)O1)C[C@H](O)[C@H]2C(=O)O [Natamycin F, natamycin]
BET [1]: 9.36 m^2/g
Efficacy (Botrytis cinerea; Table 33, 100 ppm natamycin, day 3): 60.2%
D0.5 (average particle size of the particles) [6]: 15.3 μm
Inhibition zone (Saccharomyces cerevisiae [4]; Table 21, 16 h 4° C. then 24 h 30° C.): 183 mm^2
Inhibition zone (Saccharomyces cerevisiae [4]; Table 25): 142 mm2
Inhibition zone (Saccharomyces cerevisiae [4]; Table 29): 100 mm2
